Assay results as given in US10751802B1, “Method of producing silver nanoparticles using red sand” (KING SAUD UNIVERSITY, priority 2019, dated 2020).

Key:
[1] = test system: Acinetobacter baumannii (ATCC 19606); assay: agar well diffusion assay, inhibition zone; assay type: cell-based; details: standard antibiotic disc CIP (5), control
Procedure: (§1) Antibacterial activity of the exemplary silver nanoparticles, prepared as described above (except that centrifuging and drying were omitted, i.e., antimicrobial testing was performed without removing the silver nanoparticles from the red sand extract), was evaluated against pathogenic bacterial reference strains of Acinetobacter baumannii (ATCC 19606), Salmonella typhimurium (ATCC 14028), Escherichia coli (ATCC 35218), Pseudomonas aeruginosa (27853 AT), Staphylococcus aureus (25923 AT) and Proteus vulgaris (ATCC 49132) using an agar well diffusion assay. In particular, the antibacterial activity against each strain was determined by measuring the inhibition zone. Standard antibiotic discs, including Gentamycin (CN10 μg), Augmantin (AMC 30 μg), and Ciprofloxacin (CIP 5 μg), were used as controls.

[2] = test system: Escherichia coli (ATCC 35218); assay: agar well diffusion assay, inhibition zone; assay type: cell-based; details: standard antibiotic disc CIP (5), control
Procedure: as §1

[3] = test system: Pseudomonas aeruginosa (27853 AT); assay: agar well diffusion assay, inhibition zone; assay type: cell-based; details: standard antibiotic disc CIP (5), control
Procedure: as §1

S. typhimurium = assay: combination effect of silver nanoparticles with antibiotic discs; assay type: cell-based, Salmonella typhimurium; details: antibiotic disc alone; F 100 μg, FOS 50 μg, TE 30 μg, FEP 30 μg, MXF 5 μg, LEV 5 μg; Mueller-Hinton agar, 24 hours at 37° C.
Procedure: (§2) Moreover, combination effects were determined by first adjusting the turbidity of the previously mentioned bacterial strains to 0.5 MacFarland standards (10^8 CFU/mL), and swabbing the strains on Mueller-Hinton agar. Antibiotic discs alone were used as controls, respectively. […] To study the combination effect, 30 μl of the exemplary silver nanoparticles were loaded on the antibiotics discs then placed on the swabbed medium. The plates were incubated for 24 hours at 37° C. The diameters of the inhibition zones were measured and reported in millimeters.

P. aeruginosa = assay: as above; assay type: cell-based, Pseudomonas aeruginosa; details: antibiotic disc alone; F 100 μg, FOS 50 μg, TE 30 μg, FEP 30 μg, MXF 5 μg, LEV 5 μg; Mueller-Hinton agar, 24 hours at 37° C.
Procedure: as §2

S. aureus = assay: as above; assay type: cell-based, Staphylococcus aureus; details: antibiotic disc alone; RD 5 μg, E 15 μg, TOB 10 μg, TGC 15 μg, MXF 5 μg, LEV 5 μg; Mueller-Hinton agar, 24 hours at 37° C.
Procedure: as §2

E. coli = assay: as above; assay type: cell-based, Escherichia coli; details: antibiotic disc alone; F 100 μg, FOS 50 μg, TE 30 μg, FEP 30 μg, MXF 5 μg, LEV 5 μg; Mueller-Hinton agar, 24 hours at 37° C.
Procedure: as §2

A. baumannii = assay: as above; assay type: cell-based, Acinetobacter baumannii; details: antibiotic disc alone; F 100 μg, FOS 50 μg, TE 30 μg, FEP 30 μg, MXF 5 μg, LEV 5 μg; Mueller-Hinton agar, 24 hours at 37° C.
Procedure: as §2

P. vulgaris = assay: as above; assay type: cell-based, Proteus vulgaris; details: antibiotic disc alone; F 100 μg, FOS 50 μg, TE 30 μg, FEP 30 μg, MXF 5 μg, LEV 5 μg; Mueller-Hinton agar, 24 hours at 37° C.
Procedure: as §2

[4] = test system: Proteus vulgaris (ATCC 49132); assay: agar well diffusion assay, inhibition zone; assay type: cell-based; details: standard antibiotic disc AMC (30), control
Procedure: as §1

[5] = test system: Salmonella typhimurium (ATCC 14028); assay: agar well diffusion assay, inhibition zone; assay type: cell-based; details: standard antibiotic disc CN (10), control
Procedure: as §1

[6] = test system: Staphylococcus aureus (25923 AT); assay: agar well diffusion assay, inhibition zone; assay type: cell-based; details: standard antibiotic disc CN (10), control
Procedure: as §1

| Compound | C: inhibition zone of the antibiotic alone as a control (S. typhimurium) [mm] | C: inhibition zone of the antibiotic alone as a control (P. aeruginosa) [mm] | C: inhibition zone of the antibiotic alone as a control (S. aureus) [mm] | C: inhibition zone of the antibiotic alone as a control (E. coli) [mm] | C: inhibition zone of the antibiotic alone as a control (A. baumannii) [mm] | C: inhibition zone of the antibiotic alone as a control (P. vulgaris) [mm] | further results |
| --- | --- | --- | --- | --- | --- | --- | --- |
| O=C(O)c1cn(C2CC2)c2cc(N3CCNCC3)c(F)cc2c1=O [CIP, Ciprofloxacin] |  |  |  |  |  |  | Diameter of inhibition zone, standard antibiotic disc [1]: CIP (5) = 25 mm; Diameter of inhibition zone, standard antibiotic disc [2]: CIP (5) = 33 mm; Diameter of inhibition zone, standard antibiotic disc [3]: CIP (5) = 31 mm |
| CO/N=C(\C(=O)N[C@@H]1C(=O)N2C(C(=O)[O-])=C(C[N+]3(C)CCCC3)CS[C@H]12)c1csc(N)n1 [Cefepime] | 23.5 | 11 |  |  |  |  |  |
| CC[C@H]1OC(=O)[C@H](C)[C@@H](O[C@H]2C[C@@](C)(OC)[C@@H](O)[C@H](C)O2)[C@H](C)[C@@H](O[C@@H]2O[C@H](C)C[C@H](N(C)C)[C@H]2O)[C@](C)(O)C[C@@H](C)C(=O)[C@H](C)[C@@H](O)[C@]1(C)O [Erythromycin] |  |  | 32 |  |  |  |  |
| C[C@@H]1O[C@@H]1P(=O)(O)O [Fosfomycin] | 20.5 | 27 |  | 24 | 10 | 11 |  |
| C[C@H]1COc2c(N3CCN(C)CC3)c(F)cc3c(=O)c(C(=O)O)cn1c23 [Levofloxacin] | 30 | 27 | 27 | 35 | 23 | 33 |  |
| COc1c(N2C[C@@H]3CCCN[C@@H]3C2)c(F)cc2c(=O)c(C(=O)O)cn(C3CC3)c12 [Moxifloxacin] | 30 | 22.5 | 33 | 31 | 20 | 19. |  |
| O=C1CN(/N=C/c2ccc([N+](=O)[O-])o2)C(=O)N1 [Nitrofurantoin] | 23.5 |  |  | 21.5 | 11 | 10 |  |
| CO[C@H]1/C=C/O[C@@]2(C)Oc3c(C)c(O)c4c(O)c(c(/C=N/N5CCN(C)CC5)c(O)c4c3C2=O)NC(=O)/C(C)=C\C=C\[C@H](C)[C@H](O)[C@@H](C)[C@@H](O)[C@@H](C)[C@H](OC(C)=O)[C@@H]1C [Rifampicin] |  |  | 34.5 |  |  |  |  |
| CN(C)[C@@H]1C(O)=C(C(N)=O)C(=O)[C@@]2(O)C(O)=C3C(=O)c4c(O)cccc4[C@@](C)(O)[C@H]3C[C@@H]12 [Tetracycline] | 18 | 11.5 |  | 17 | 11.5 | 11. |  |
| CN(C)c1cc(NC(=O)CNC(C)(C)C)c(O)c2c1C[C@H]1C[C@H]3[C@H](N(C)C)C(O)=C(C(N)=O)C(=O)[C@@]3(O)C(O)=C1C2=O [Tigecycline] |  |  | 24 |  |  |  |  |
| NC[C@H]1O[C@H](O[C@H]2[C@H](O)[C@@H](O[C@H]3O[C@H](CO)[C@@H](O)[C@H](N)[C@H]3O)[C@H](N)C[C@@H]2N)[C@H](N)C[C@@H]1O [Tobramycin] |  |  | 26 |  |  |  |  |
| Augmantin [AMC] |  |  |  |  |  |  | Diameter of inhibition zone, standard antibiotic disc [4]: AMC (30) = 32 mm |
| Gentamycin [CN] |  |  |  |  |  |  | Diameter of inhibition zone, standard antibiotic disc [5]: CN (10) = 24 mm; Diameter of inhibition zone, standard antibiotic disc [6]: CN (10) = 30 mm |
